# Key:
# HeLa cells [1] = assay: Total intracellular folate measurement in HeLa cells (L. casei microbiological assay); type: cell-based
# Procedure: HeLa cells were cultured in Defined αMEM (as described above) lacking folate for two doublings to deplete cellular folates, then plated into 6-well plates (1000 cells/well) and cultured for two cell doublings with Defined αMEM culture media (described above) supplemented with 200 μM methionine, 0.5 g/L pyridoxine, and either 2 nM or 20 nM (6S)-Leucovorin or novel folate derivative. Total intracellular folates were quantified using a microbiological (Lactobacillus casei, or L. casei) assay as previously described (Suh et al., “Purification and Properties of a Folate-Catabolizing Enzyme,” J. Biol. Chem. 275(45):35646-35655 (2000), which is hereby incorporated by reference in its entirety). Data is represented as mean±SEM of three biological replicates per condition.
# [2] = test system: immortalized mouse fibroblasts (CHIP) cells; assay: Cell proliferation of immortalized mouse fibroblasts (CHIP) in Defined αMEM supplemented with folate forms (bright field image analysis); type: cell-based; details: range of concentrations, approximately three doublings, compared with Leucovorin and folic acid (FIG. 6B)
# Procedure: (§1) HeLa cells and immortalized mouse fibroblasts (CHIP) cells were plated in 96-well plates, 1000 cells per well. Total cell number was monitored over time using bright field image analysis on a Celigo cytometer (Nexcelom, Inc.) according to manufacturers' protocols. Data was represented as average±standard deviation for 10 biological replicates per condition. Cells were cultured in Defined αMEM culture media (lacking folate, serine, glycine, methionine, nucleosides/nucleotides, and pyridoxine) which was supplemented with 200 μM methionine, 0.5 g/L pyridoxine, and varying concentrations of folic acid, (6S)-Leucovorin or novel folate derivative. Before plating for proliferation assays, HeLa cells and CHIP cells were cultured for three doublings in Defined αMEM lacking folate to deplete intracellular folates.
# [3] = Chemical stability of folates incubated in Defined αMEM at 65° C., read out by L. casei assay; type: physicochemical; details: for Chemical stability relative to 5-methyltetrahydrofolate: 65° C., pH 7.2, Defined αMEM (FIG. 8); for Chemical stability (support of growth in the microbiological assay): after 24 hours incubation at 65° C., pH 7.2 (FIG. 8)
# Procedure: Folic acid and various reduced folates were incubated in Defined αMEM (described above) in sterile Eppendorf tubes at 65° C. and sampled at 0, 0.5, 1, 2, 4, 8, and 24 hours. The sampled aliquots were immediately mixed with L. casei extraction buffer containing sodium ascorbate to protect folates from oxidative degradation and frozen at −80° C. The L. casei assay was performed as previously described (Suh et al., “Purification and Properties of a Folate-Catabolizing Enzyme,” J Biol. Chem. 275(45):35646-35655 (2000), which is hereby incorporated by reference in its entirety).
# HeLa cells [4] = assay: Cell proliferation of HeLa cells in Defined αMEM supplemented with folate forms (bright field image analysis); type: cell-based; details: range of concentrations, approximately three doublings, compared with Leucovorin and folic acid (FIGS. 6A, 6C)
# Procedure: as §1
# [5] = Stability in AIN-93G mouse food pellets; type: physicochemical; details: for at least 10 weeks; pellets stored at room temperature or −20° C. (FIGS. 9A-B)
# Procedure: Folic acid and (6S)-5-formyl, 10-formyl-tetrahydrofolate were shipped to Dyets, Bethlehem, Pa. as folate sources for the formulation of AIN-93G, a defined growth diet formulated for rodents by the American Institute of Nutrition. The stability of folic acid and (6S)-5-formyl, 10-formyl-tetrahydrofolate in food pellets was determined over a 10 week period.
# [6] = Mice fed AIN-93G diet containing the folate source (growth, adverse symptoms); type: in vivo, mouse; details: for Mouse growth: AIN-93G diet with the compound as folate source, over at least an 8-week period
# [7] = Acid stability (conversion to 5,10-methenyltetrahydrofolate); type: physicochemical; details: conversion to 5,10-methenyltetrahydrofolate in acid; no method described
Structure (SMILES),Chemical stability relative to 5-methyltetrahydrofolate [3],Chemical stability relative to 5-methyltetrahydrofolate ([3]; 10-formyltetrahydrofolate),Chemical stability (support of growth in the microbiological assay) [3],Stability as a component of AIN-93G rodent food [5],Mouse growth [6],also measured
"CN1c2c(nc(N)[nH]c2=O)NC[C@H]1CN(C=O)c1ccc(C(=O)N[C@@H](CCC(=O)O)C(=O)O)cc1 [(6S)-5-methyl, 10-formyltetrahydrofolate]",chemically more stable than 5-methyltetrahydrofolate,increased chemical stability relative to (6S) 5-methyltetrahydrofolate,–,–,–,"Total cellular folate (HeLa cells [1]; HeLa cells cultured with 20 nM compound, compared with 2 nM (6S)-Leucovorin): equivalent to total cellular folate in HeLa cells cultured in 2 nM (6S)-Leucovorin; Total intracellular folate levels (HeLa cells [1]; HeLa cells, 2 nM or 20 nM folate form, (6S)-Leucovorin vs (6S)-5-methyl, 10-formyltetrahydrofolate (FIG. 7)): higher with (6S)-Leucovorin than with (6S)-5-methyl, 10-formyltetrahydrofolate; Proliferation / support of cell growth ([2]; 10-formyl-THF): support cell growth in a similar dose-response as (6S)-Leucovorin and are superior to folic acid; Proliferation / support of cell growth (HeLa cells [4]; 10-formyl-THF): support cell growth in a similar dose-response as (6S)-Leucovorin and are superior to folic acid"
"CN1c2c(nc(N)[nH]c2=O)NC[C@@H]1CNc1ccc(C(=O)N[C@@H](CCC(=O)O)C(=O)O)cc1 [5-methyl-tetrahydrofolate, (6S) 5-methyltetrahydrofolate, reference compound]",–,–,completely destroyed,–,–,–
"Nc1nc2c(c(=O)[nH]1)N(C=O)[C@H](CN(C=O)c1ccc(C(=O)N[C@@H](CCC(=O)O)C(=O)O)cc1)CN2 [(6S)-5-formyl, 10-formyltetrahydrofolate]",chemically more stable than 5-methyltetrahydrofolate,increased chemical stability relative to (6S) 5-methyltetrahydrofolate,–,completely stable,promote mouse growth,Proliferation / support of cell growth ([2]; 10-formylTHF): support cell growth in a similar dose-response as (6S)-Leucovorin and are superior to folic acid; Proliferation / support of cell growth (HeLa cells [4]; 10-formylTHF): support cell growth in a similar dose-response as (6S)-Leucovorin and are superior to folic acid; Adverse symptoms ([6]; mice fed AIN-93G diet containing the compound for 8 weeks): without any adverse symptoms
"Nc1nc2c(c(=O)[nH]1)N(C=O)[C@@H](CNc1ccc(C(=O)N[C@@H](CCC(=O)O)C(=O)O)cc1)CN2 [(6S)-Leucovorin, (6S)-5-formyltetrahydrofolate, reference compound]",–,–,continued to support growth,–,–,Stability in acid [7]: unstable in acid
"Nc1nc2ncc(CNc3ccc(C(=O)N[C@@H](CCC(=O)O)C(=O)O)cc3)nc2c(=O)[nH]1 [folic acid, reference compound]",–,–,continued to support growth,completely stable,promote mouse growth,–
